The record followed here is patent US10343988B1, “Hydroxytyrosol thiodipropionic acid ester with antioxidant activity and a method of preparing the same” (SHAANXI UNIVERSITY OF SCIENCE AND TECHNOLOGY, priority 2019, dated 2019).

Structures are written as SMILES. Entries after “also recorded” stand apart in the source; their conditions may differ.

The assay is described as follows: DPPH radical scavenging activity assay. Particulars: for Scavenging Activity (%) (n = 3): DPPH in methanol, 30 min, 517 nm. The class given is biochemical. An excerpt: DPPH Radical Scavenging Activity Assay
2,2-Diphenyl-1-picryl hydrazyl (DPPH) is an organic compound composed of a stable organic radical. In the DPPH molecule, due to the presence of multiple electron-withdrawing —NO2 and large it bonds of the benzene ring, nitrogen free radical is stabilized. Its methanol solution is purple and has a maximum absorption peak at 517 nm. After the addition of an antioxidant, DPPH captures an electron to be paired with the free electron, and the purple fades and turns into a yellow substance. The absorption at 517 nm disappears, and the degree of fading is quantitatively related to the number of electrons it captures. Based on this principle, a spectrophotometer is used to detect the change of the absorbance of the DPPH radical and the sample solution, and the ability of the sample to provide hydrogen atoms and scavenge free radicals can be measured.
(a) Preparation of DPPH solution:measuring exact amount of 2,2-diphenyl-1-picryl hydrazyl (DPPH) and dissolving in methanol to prepare a 0.2×10^−4 mol/L DPPH solution, stored at 0° C. in dark.
(b) Preparation of sample solutions: Vc (vitamin C, positive control), hydroxytyrosol thiodipropionic acid ester, hydroxytyrosol (control), thiodipropionic acid (control), and a mixture of hydroxytyrosol and thiodipropionic acid (control) were dissolved in methanol and diluted in a concentration gradient.
Measuring the scavenging activity of the sample solutions: 2 mL of the sample solutions (table 1) at each concentration gradient was taken, 2 mL 0.2×10^−4 mol/L DPPH solution was added, the mixture was mixed and reacted at room temperature in dark for 30 minutes, and methanol was then added to adjust final volume. The absorbance Ai was measured at 517 nm. 2 mL control solution and 2 mL methanol were mixed, and the absorbance Aj was measured. 2 mL DPPH solution and 2 mL methanol were mixed, and the absorbance A0 was measured.
(d) The scavenging activity of the sample solution and control solutions is calculated according to the following calculation formula and shown in Table 3 and FIG. 3. Scavenging activity (%)=100×[1−(Ai−Aj)/A0]
Background: Loss of DPPH colour is used to gauge radical scavenging.

[1] abbreviates: sample concentration 1.648 μg/mL, room temperature, dark.
The mark [2] stands for this setting: sample concentration 8.242 μg/mL.
Where [3] appears, read: sample concentration 16.484 μg/mL.
Setting [4] is: sample concentration 37.969 μg/mL.
Setting [5] is: sample concentration 65.938 μg/mL.
[6] abbreviates: sample concentration 131.875 μg/mL.
The mark [7] stands for this setting: sample concentration 263.750 μg/mL.
The mark [8] stands for this setting: sample concentration 527.500 μg/mL.
Where [9] appears, read: sample concentration 1055.000 μg/mL.

On to `O=C(CCSCCC(=O)OCCc1ccc(O)c(O)c1)OCCc1ccc(O)c(O)c1` [A, bis(3,4-dihydroxyphenethyl) 3,3′-thiodipropanoate], for which the “DPPH radical scavenging activity (result in words, comparison with controls)” value (1.648 to 1055 μg/mL, compared at same concentration) was “obvious DPPH radical scavenging activity in a concentration dependent manner; also recorded: better DPPH radical scavenging activity than hydroxytyrosol (B), thiodipropionic acid (C), and a 2:1 physical mixture of hydroxytyrosol and thiodipropionic acid (D) at same concentration”. Besides, the “Scavenging Activity (%) (n = 3)” value is, setting by setting: under setting [1], 32.44%; under setting [2], 42.37%; under setting [3], 52.29%; under setting [4], 66.79%; under setting [5], 79.39%; under setting [6], 90.01%. Moreover, the “Scavenging Activity (%) (n = 3)” value reads like this: under setting [7], 96.95%; under setting [8], 97.71%; under setting [9], 98.09%.
For the compound `OCCc1ccc(O)c(O)c1` [B, 4-(2-hydroxyethyl)-1,2-benzenediol], the “Scavenging Activity (%) (n = 3)” value is, setting by setting: under setting [1], 8.44%; under setting [2], 10.97%; under setting [3], 22.78%; under setting [4], 29.96%; under setting [5], 43.04%; under setting [6], 62.87%. In addition, the “Scavenging Activity (%) (n = 3)” value under setting [7] came to 73.00%, the “Scavenging Activity (%) (n = 3)” value under setting [8] turned out to be 75.11% and the “Scavenging Activity (%) (n = 3)” value under setting [9] stood at 75.95%.
For the compound `O=C(O)CCSCCC(=O)O` [C, 3,3′-thiodipropionic acid], the “Scavenging Activity (%) (n = 3)” value reads like this: under setting [1], 3.24%; under setting [2], 4.86%; under setting [3], 9.72%; under setting [4], 16.19%; under setting [5], 20.65%; under setting [6], 27.13%. Also, the “Scavenging Activity (%) (n = 3)” value is, setting by setting: under setting [7], 31.58%; under setting [8], 32.39%; under setting [9], 38.06%.
Consider `O=C1O[C@H]([C@@H](O)CO)C(O)=C1O` [Vc, Vitamin C], for which the “Scavenging Activity (%) (n = 3)” value runs as follows: under setting [1], 34.01%; under setting [2], 37.06%; under setting [3], 44.67%; under setting [4], 67.51%; under setting [5], 95.43%; under setting [6], 97.46%. Also, the “Scavenging Activity (%) (n = 3)” value by setting is: under setting [7], 98.98%; under setting [8], 99.49%; under setting [9], 99.49%.
